Data set [1] in a line: in vitro. The conditions noted are these: African green monkey.
The test system of data set [2] is USA_WA1/2020 SARS CoV-2. Put plainly: microbe, parasite or virus in culture. It is filed as cell-based. Conditions: Severe acute respiratory syndrome coronavirus 2, Vero C1008, 72 h, read-out: SARS-2 EC50 (μM) VeroE6.
Data set [3] concerns SARS-2. Put plainly: microbe, parasite or virus in culture. It is filed as cell-based. The conditions noted are these: Severe acute respiratory syndrome coronavirus 2, read-out: SARS-2 VU-EC50 (μM) (A549-hACE2).
The subject of data set [4] is SARS-2.
Data set [5] concerns Toronto 2 SARS CoV-1. Description: organism not typed. It is filed as cell-based. Conditions: Vero C1008, 72 h, read-out: SARS-1 EC50 (μM) VeroE6.

Where only a bound is given, the exact number is not on record here.

Here are results for 17 compounds from patent US11905306B2 (priority 2021, dated 2024).

Consider `O=C(Nc1cccc(C#Cc2ccccn2)c1)c1ccc(N2CCCCC2=O)cc1` [Compound 22, 4-(2-Oxopiperidin-1-yl)-N-(3-(pyridin-2-ylethynyl)phenyl)benzamide], for which the CC50 in data set [1] was > 30000 nM. For the same compound, the concentration for a half-maximal effect (EC50) worked out at 1.87 µM in data set [2], 1.05 µM in data set [3] and 1.3 µM in data set [5]. Besides, the “SARS-2 VU-VTR @ 20 μM (A549-hACE2) (logs)” value in data set [4] is recorded as 2.4 logs.
On the same counts, the results for `O=C(Nc1ccc(C(=O)Nc2cccc(C#Cc3ccccn3)c2)cc1)c1ccc(F)cc1` [Compound 26, 4-Fluoro-N-(4-((3-(pyridin-2-ylethynyl)phenyl)carbamoyl)phenyl)benzamide] are > 30000 nM, 0.49 µM, 0.69 µM, 0.35 µM and 1.16 logs.
With `CC(=O)Nc1ccc(C(=O)Nc2cccc(C#Cc3ccccn3)c2)cc1F` [Compound 29, 4-Acetamido-3-fluoro-N-(3-(pyridin-2-ylethynyl)phenyl)benzamide], the CC50 in data set [1] is > 30000 nM. In addition, the EC50 in data set [2] amounted to 1.07 µM; in data set [3], 1.86 µM; in data set [5], 0.76 µM. For the same compound, in data set [4], the “SARS-2 VU-VTR @ 20 μM (A549-hACE2) (logs)” value was determined as 2.6 logs.
On the same counts, the results for `O=C(Nc1cccc(C#Cc2ccccn2)c1)c1ccc(-c2ccn[nH]2)cc1` [Compound 40, 4-(1H-Pyrazol-5-yl)-N-(3-(pyridin-2-ylethynyl)phenyl)benzamide] are 38600 nM, 1 µM, 0.81 µM, 0.53 µM and 3.2 logs.
For `COC(=O)c1ccc(C(=O)Nc2cccc(C#Cc3ccccn3)c2)cc1` [Compound 43, Methyl 4-((3-(pyridin-2-ylethynyl)phenyl)carbamoyl)benzoate], in data set [1], the CC50 is > 30000 nM. In addition, the figures for the EC50 in data set [2], in data set [3] and in data set [5] were 0.52 µM, 0.58 µM and 0.26 µM, respectively. Also, in data set [4], the “SARS-2 VU-VTR @ 20 μM (A549-hACE2) (logs)” value was determined as 2.36 logs.
For `CC(C)(C)OC(=O)c1ccc(C(=O)Nc2cccc(C#Cc3ccccn3)c2)cc1` [Compound 44, tert-Butyl 4-((3-(pyridin-2-ylethynyl)phenyl)carbamoyl)benzoate] the same measures were 24200 nM, 0.16 µM, 0.22 µM, 0.07 µM and 2.41 logs.
On to `COc1cc(C#Cc2ccccn2)cc(NC(=O)c2ccc3c(c2)CCC(=O)N3)c1` [Compound 46, N-(3-Methoxy-5-(pyridin-2-ylethynyl)phenyl)-2-oxo-1,2,3,4-tetrahydroquinoline-6-carboxamide], for which the CC50 in data set [1] is > 30000 nM. The EC50 in data set [2] was found to be 0.78 µM; in data set [3], 0.53 µM; in data set [5], 0.83 µM. For the same compound, in data set [4], the “SARS-2 VU-VTR @ 20 μM (A549-hACE2) (logs)” value is reported as 2.66 logs.
As to `COc1cc(C#Cc2ccccn2)cc(NC(=O)c2ccc(N3CCCCC3=O)cc2)c1` [Compound 48, N-(3-Methoxy-5-(pyridin-2-ylethynyl)phenyl)-4-(2-oxopiperidin-1-yl)benzamide], the CC50 in data set [1] was > 30000 nM. The EC50 was 0.45 µM in data set [2], 0.1 µM in data set [3] and 0.21 µM in data set [5]. For the same compound, in data set [4], the “SARS-2 VU-VTR @ 20 μM (A549-hACE2) (logs)” value is on record as 3.08 logs.
For the compound `O=C(Nc1cc(C#Cc2ccccn2)cc(OC(F)(F)F)c1)c1ccc(N2CCCCC2=O)cc1` [Compound 50, 4-(2-Oxopiperidin-1-yl)-N-(3-(pyridin-2-ylethynyl)-5-(trifluoromethoxy)phenyl)benzamide], the CC50 in data set [1] is > 30000 nM. In addition, the EC50 is 0.18 µM in data set [2], 0.09 µM in data set [3] and 0.13 µM in data set [5]. For the same compound, the “SARS-2 VU-VTR @ 20 μM (A549-hACE2) (logs)” value in data set [4] came to 2.59 logs.
For `O=C1CCc2cc(NC(=O)c3cccc(C#Cc4ccccn4)c3)ccc2N1` [Compound 54, N-(2-oxo-1,2,3,4-tetrahydroquinolin-6-yl)-3-(pyridin-2-ylethynyl)benzamide], the CC50 in data set [1] was > 30000 nM. Also, the figures for the EC50 in data set [2], in data set [3] and in data set [5] were 3 µM, 1.42 µM and > 30 µM, respectively. Also, the “SARS-2 VU-VTR @ 20 μM (A549-hACE2) (logs)” value in data set [4] turned out to be 2.24 logs.
Take `CC1(C)CN(c2ccc(NC(=O)c3cccc(C#Cc4ccccn4)c3)cc2)C1=O` [Compound 58, N-(4-(3,3-dimethyl-2-oxoazetidin-1-yl)phenyl)-3-(pyridin-2-ylethynyl)benzamide]: the CC50 in data set [1] is > 40000 nM. For the same compound, the EC50 stood at 0.5 µM in data set [2], 0.38 µM in data set [3] and 0.3 µM in data set [5]. In addition, the “SARS-2 VU-VTR @ 20 μM (A549-hACE2) (logs)” value in data set [4] was determined as 1.93 logs.
Turning to `O=C(Nc1ccc(N2CCCCC2=O)cc1)c1cccc(C#Cc2ccccn2)c1` [Compound 59, N-(4-(2-oxopiperidin-1-yl)phenyl)-3-(pyridin-2-ylethynyl)benzamide], the CC50 in data set [1] was > 30000 nM. For the same compound, the EC50 in data set [2] worked out at 2 µM; in data set [3], 0.66 µM; in data set [5], 1.05 µM. In data set [4], the “SARS-2 VU-VTR @ 20 μM (A549-hACE2) (logs)” value is listed as 2.98 logs.
For the compound `CC(C)OC(=O)c1ccc(NC(=O)c2cccc(C#Cc3ccccn3)c2)cc1` [Compound 65, Isopropyl 4-(3-(pyridin-2-ylethynyl)benzamido)benzoate], the CC50 in data set [1] is > 30000 nM. Further, the values for the concentration for a half-maximal effect (EC50) in data set [2], in data set [3] and in data set [5] were 0.46 µM, 0.29 µM and 0.16 µM, respectively. Further, the “SARS-2 VU-VTR @ 20 μM (A549-hACE2) (logs)” value in data set [4] is listed as 2.78 logs.
On the same counts, the results for `O=C(Nc1ccc(C(=O)OCC2CC2)cc1)c1cccc(C#Cc2ccccn2)c1` [Compound 66, Cyclopropylmethyl 4-(3-(pyridin-2-ylethynyl)benzamido)benzoate] are > 30000 nM, 0.83 µM, 0.46 µM, 0.49 µM and 1.73 logs.
For `CC(C)n1nccc1-c1ccc(NC(=O)c2cccc(C#Cc3ccccn3)c2)cc1` [Compound 69, N-(4-(1-isopropyl-1H-pyrazol-5-yl)phenyl)-3-(pyridin-2-ylethynyl)benzamide] the same measures were > 30000 nM, 0.45 µM, 0.22 µM, 0.24 µM and 3.3 logs.
With `O=C(Nc1ccc(N2CCCCS2(=O)=O)cc1)c1cccc(C#Cc2ccccn2)c1` [Compound 70, N-(4-(1,1-dioxido-1,2-thiazinan-2-yl)phenyl)-3-(pyridin-2-ylethynyl)benzamide], in data set [1], the CC50 was > 30000 nM. In addition, the EC50 was found to be 1.08 µM in data set [2], 0.82 µM in data set [3] and 1.29 µM in data set [5]. The “SARS-2 VU-VTR @ 20 μM (A549-hACE2) (logs)” value in data set [4] came out at 2.47 logs.
For `CCOP(=O)(OCC)c1ccc(NC(=O)c2cccc(C#Cc3ccccn3)c2)cc1` [Compound 73, Diethyl (4-(3-(pyridin-2-ylethynyl)benzamido)phenyl)phosphonate], the CC50 in data set [1] is > 30000 nM. Further, the EC50 in data set [2] came to 0.45 µM; in data set [3], 0.003 µM; in data set [5], 0.18 µM. The “SARS-2 VU-VTR @ 20 μM (A549-hACE2) (logs)” value in data set [4] stood at 2.93 logs.
